{"source": "patent US9545393B2", "about": "“Methods and compositions for treating pain” (The Board of Trustees of the Leland Stanford Junior …, priority 2012, dated 2017)", "key": {"[1]": {"test_system": "rats subjected to carrageenan insult to the right hind paw", "assay": "Randall-Selitto paw pressure test, carrageenan-induced hyperalgesia in rats", "type": "in vivo, rat", "experimental": "Rats. Male Wistar rats (170-190 g) were provided by Charles River Laboratories or Butantan Institute Animal Facility and housed in a temperature-controlled (22±1° C.) and light-controlled (12/12 h light/dark cycle) room. All rats were housed in their surrounding for at least 3 days. Groups of 5-6 rats were used.\nDrugs Used. 0.1 ml saline (control), carrageenan (200 μg for rats, 100 μg for mice; Marine Colloids), or prostaglandin E2 (100 ng, Sigma) was administered by intraplantar injection into the right hind paw to induce hyperalgesia. These doses were chosen based on previous studies by our laboratory groups (Aley K O, et al., (2000) Chronic hypersensitivity for inflammatory nociceptor sensitization mediated by the epsilon isozyme of protein kinase C. The Journal of neuroscience: the official journal of the Society for Neuroscience 20: 4680-4685; Konno K, et al., (2008) Crotalphine, a novel potent analgesic peptide from the venom of the South American rattlesnake Crotalus durissus terrificus. Peptides 29: 1293-1304).\nAlda-1 dose (2 mg/kg/per injection, dissolved in 50% PEG/50% DMSO) was established in preliminary studies and given in multiple doses due to its estimated short half-life. Alda-1 was injected subcutaneously to the dorsal side of the neck 15 minutes before carrageenan or saline, and again at 30 and 150 minutes after carrageenan, prostaglandin E2 or saline injection. One subset of animals received Alda-1 only 30 and 150 minutes after carrageenan injection. Where indicated, naloxone (1 mg/kg per injection) or vehicle (saline) was given 10 minutes prior to each Alda-1 treatment to the dorsal side of the neck.\nNociception Assessment. The experimental performer was blinded to both genotype and/or treatments. Nociceptive response was assessed by the von Frey method for mice and the Randall-Selitto method for rats immediately before and 180 minutes after carrageenan or prostaglandin E2 injection. Both mice and rats were acclimated to the testing equipment one day before baseline testing.\nRandall-Selitto method: Nociceptive threshold was determined using the Randall-Selitto paw pressure test (Ugo-Basile), as previously described (Gutierrez V P, et al., (2008) Crotalphine induces potent antinociception in neuropathic pain by acting at peripheral opioid receptors. European journal of pharmacology 594: 84-92). The baseline values varied between 65-75 g of force. Animals with baseline out of this range (about 10%) were excluded prior to initiating the study in order to achieve uniform testing."}, "neutrophil elastase": {"test_system": "neutrophil elastase", "assay": "Western blot of neutrophil elastase in paw after carrageenan", "type": "in vivo, rat", "settings": "rats, carrageenan group treated with Alda-1; Western blot quantification", "experimental": "Biochemical Studies In Rats and Mice. Protein was isolated from rat paw tissue at 3 hours after treatment or from liver tissue of mutant or wild type mice. Tissues were homogenized in buffer containing (Hepes 10 mM, NaCl 0.9%, EGTA 1 mM, DTPA 100 μM, Triton-X 1%, Protease and Phosphatase inhibitors (AEBSF, Aprotinin, Bestatin, E-64, Leupeptin, Pepstatin A, Sodium orthovanadate, Sodium molybdate, Sodium tartrate, Imidazole, Cantharidin, (−)-p-Bromolevamisole oxalate and Calyculin A). The samples were centrifuged at 700 g for 5 min at 4° C. Mitochondrial fraction from liver was obtained as previously described (Chen, et al. (2008) Activation of aldehyde dehydrogenase-2 reduces ischemic damage to the heart. Science 321, 1493-1495; Sun, L., et al. ALDH2 activator inhibits increased myocardial infarction injury by nitroglycerin tolerance. Sci Transl Med 3, 107ra111). Activation of aldehyde dehydrogenase-2 reduces ischemic damage to the heart. Science 2008; 321:1493-5). The protein concentration was determined in the supernatants by using Bradford (Bradford, M. M. (1976). A rapid and sensitive method for the quantitation of microgram quantities of protein utilizing the principle of protein-dye binding. Anal Biochem 72, 248-254).\nWestern blot analysis. […] Quantification analysis of blots was performed with Image J software, using GAPDH as a loading control."}, "mutant ALDH2*2": {"biological_target": "T1, mutant ALDH2*2 (Homo sapiens, UniProt P05091, E504K)", "T1 sequence (P05091 18-517 E504K)": "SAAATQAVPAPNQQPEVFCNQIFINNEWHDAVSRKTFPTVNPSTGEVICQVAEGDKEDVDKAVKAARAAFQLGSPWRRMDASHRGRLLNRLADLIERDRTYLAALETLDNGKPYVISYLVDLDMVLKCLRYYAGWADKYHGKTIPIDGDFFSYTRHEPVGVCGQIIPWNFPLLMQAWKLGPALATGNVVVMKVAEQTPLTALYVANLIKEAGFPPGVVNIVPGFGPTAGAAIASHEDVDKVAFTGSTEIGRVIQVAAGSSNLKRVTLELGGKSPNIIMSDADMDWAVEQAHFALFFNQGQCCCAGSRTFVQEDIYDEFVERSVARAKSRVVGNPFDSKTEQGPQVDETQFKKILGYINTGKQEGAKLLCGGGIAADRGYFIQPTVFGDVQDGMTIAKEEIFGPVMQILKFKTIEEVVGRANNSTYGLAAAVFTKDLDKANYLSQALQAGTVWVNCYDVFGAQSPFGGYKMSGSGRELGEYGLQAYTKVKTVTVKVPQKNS", "settings": "Perez-Miller et al, 2010; cited from earlier work"}}, "note": "Entries after “also recorded” stand apart in the source; their conditions may differ.", "data": [{"smiles": "O=C(NCc1ccc2c(c1)OCO2)c1c(Cl)cccc1Cl", "note": "[Alda-1, N-(1,3-benzodioxol-5-ylmethyl)-2,6-dichlorobenzamide]", "values": [{"measurement": "Nociceptive threshold when Alda-1 is given after the insult", "setting": "[1]; Alda-1 2 mg/kg s.c. only 30 and 150 minutes after carrageenan, Randall-Selitto, P<0.0001, 2 mg/kg", "value": "increased the nociceptive threshold; also recorded: significantly increased nociceptive threshold"}, {"measurement": "Nociceptive threshold (FIG. 1B)", "setting": "[1]; carrageenan insult, Alda-1 2 mg/kg s.c., 3 hours after insult, P<0.001", "value": "significantly increased nociceptive threshold"}, {"measurement": "Increase of nociceptive threshold", "setting": "[1]; carrageenan-induced model, Alda-1 2 mg/kg s.c. 15 min before and 30 and 150 min after insult, tested 3 hours after insult", "value": 2, "unit": "fold"}, {"measurement": "Reduction of carrageenan-induced hyperalgesia compared with atenolol or celecoxib", "setting": "[1]; comparison to previous publication using the same rat hyperalgesia model (Chacur et al, 2003)", "value": "more effective than atenolol or celecoxib"}, {"measurement": "Effect of Alda-1 on nociceptive threshold in the presence of naloxone", "setting": "[1]; naloxone 1 mg/kg s.c. 10 minutes before each Alda-1 treatment, Alda-1 after carrageenan", "value": "not blunted"}, {"measurement": "Neutrophil elastase (marker of inflammation)", "setting": "neutrophil elastase", "value": "220±26"}, {"measurement": "Effect on activity of mutant ALDH2*2", "setting": "mutant ALDH2*2", "value": "corrects ALDH2 inactivity"}]}]}
